Laboratory results as given in patent US20220315624A1, “THIOSTREPTON ANALOGS AND METHODS OF MAKING AND USING SAME” (YALE UNIVERSITY, priority 2019, published 2022).
In brackets after ≈: the same amount, converted by molar mass. Like-named read-outs stand apart in the source and are kept apart here.

What was measured:
[1] = test system: S. aureus ATCC 29213 MSSA; test: MIC broth microdilution; assay type: cell-based; conditions: Staphylococcus aureus
Method: (§1) Twenty-four test agents were shipped to Micromyx and stored at −20° C. until assayed. The compounds were dissolved in 100% DMSO at 6.46 mg/mL prior to testing. Comparator drugs were supplied by Micromyx and were handled as described below:
(§2) The test organisms for the assay were recent clinical isolates or reference strains acquired from the American Type Culture Collection (ATCC; Manassas, Va.). Upon receipt, the isolates were streaked onto Trypticase Soy Agar II+5% sheep blood (TSAB). Colonies were harvested from the plates and a cell suspension was prepared in Trypticase Soy Broth containing cryoprotectant. Aliquots were then frozen at −80° C. Prior to the assay, the frozen seeds of all bacterial isolates to be tested were thawed and streaked for isolation onto TSAB (BD/BBL, Sparks, Md.; Lot No. 9011894), and were incubated overnight at 35° C.
(§3) The test medium for all isolates was cation-adjusted Mueller Hinton broth (CAMHB; BD/BBL; Lot No. 8190586). CAMHB (Cation Adjusted Mueller Hinton Broth) was supplemented with 3% (v/v) lysed horse blood (LHB; Hemostat, Dixon, Calif.; Lot No. 474990) for the testing of streptococci.
(§4) MIC values were determined using a broth microdilution method as recommended by CLSI. Automated liquid handlers (Multidrop 384, Labsystems, Helsinki, Finland; Biomek 2000 and Biomek F/X, Beckman Coulter, Fullerton Calif.) were used to conduct serial dilutions and make liquid transfers.
(§5) The wells of standard 96-well microdilution plates (Costar 3795, Corning Inc., Corning, N.Y.) were filled with 150 μL of the appropriate diluent in columns 2-12 on the Multidrop 384 (DMSO for the thiostrepton analogs, deionized H2O for vancomycin and ceftazidime). These plates were used to prepare the drug “mother plate” which provided the serial drug dilutions for the replicate “daughter plates”. The compounds (300 μL) were dispensed at 101× the highest concentration to be tested into the appropriate row of the “mother plate”. The Biomek 2000 was used to transfer 150 μL of each stock solution from the wells in Column 1 of the mother plate to make ten subsequent 2-fold serial dilutions. The wells of Column 12 contained no drug and served as the organism growth control wells. The daughter plates were loaded with 190 μL of test medium using the Multidrop 384.
(§6) The daughter plates were prepared on the Biomek F/X instrument which transferred […] of drug solution from each well of the mother plate to each corresponding well of each daughter plate in a single step. The wells of the daughter plates ultimately contained 190 μL of media, 2 μL of drug solution, and 10 μL of inoculum prepared as described below. The final concentration of DMSO (if used as a solvent) in the test well was 1%.
(§7) A standardized inoculum of each organism was prepared per CLSI methods. A suspension of organisms from a fresh plate was prepared in CAMHB to equal the turbidity of a 0.5 McFarland standard. The suspensions were diluted 1:20 in CAMHB, or in the case of streptococci CAMHB with LHB. The inoculum for each organism was dispensed into sterile reservoirs divided by length (Beckman Coulter), and the Biomek 2000 was used to inoculate the plates. Daughter plates were placed on the Biomek 2000 work surface reversed so that inoculation took place from low to high drug concentration. The Biomek 2000 delivered 10 μL of standardized inoculum into each well. These dilutions yielded a final cell concentration in the daughter plates of approximately 5.0×10^5 CFU/mL.
(§8) Plates were stacked 3 high, covered with a lid on the top plate, placed in plastic bags, and incubated at 35° C. for 16-20 hr for all organisms except streptococci which were incubated for 20-24 hr. Following incubation, the microplates were removed from the incubator and viewed from the bottom using a plate viewer. The MIC was read and recorded as the lowest concentration of drug that inhibited visible growth of the organism. […]

[2] = test system: E. faecalis ATCC 29212 VSE; test: MIC broth microdilution; assay type: cell-based; conditions: Enterococcus faecalis, ATCC29212
Method: as §1, §2, §3, §4, §5, §6, §7, §8

[3] = test system: E. faecalis MMX 486 VRE; test: MIC broth microdilution; assay type: cell-based; conditions: Enterococcus faecalis
Method: as §1, §2, §3, §4, §5, §6, §7, §8

[4] = test system: S. aureus MMX 8088 MRSA; test: MIC broth microdilution; assay type: cell-based; conditions: Staphylococcus aureus
Method: as §1, §2, §3, §4, §5, §6, §7, §8

[5] = test system: E. faecium MMX 708 VSE; test: MIC broth microdilution; assay type: cell-based; conditions: Enterococcus faecium, MMX708VSE
Method: as §1, §2, §3, §4, §5, §6, §7, §8

[6] = test system: E. coli ATCC 25922; test: MIC broth microdilution; assay type: cell-based; conditions: Escherichia coli, ATCC25922
Method: as §1, §2, §3, §4, §5, §6, §7, §8

[7] = test system: E. faecium MMX 485 VRE; test: MIC broth microdilution; assay type: cell-based; conditions: Enterococcus faecium
Method: as §1, §2, §3, §4, §5, §6, §7, §8

[8] = test system: S. pneumoniae ATCC 49619 PISP; test: MIC broth microdilution; assay type: cell-based; conditions: Streptococcus pneumoniae, ATCC49619, 20 h
Method: as §1, §2, §3, §4, §5, §6, §7, §8

[9] = test system: S. pyogenes ATCC 19615; test: MIC broth microdilution; assay type: cell-based; conditions: Streptococcus pyogenes, ATCC19615, 20 h
Method: as §1, §2, §3, §4, §5, §6, §7, §8

[10] = Un-inoculated solubility control plate (drug precipitation); assay type: physicochemical; conditions: for Precipitation in CAMHB: at 64 μg/mL in CAMHB
[11] = Aqueous solubility analysis in MOPS buffer; assay type: physicochemical; conditions: aqueous 10 mM MOPS buffer, thermodynamic from solid; after 24 hours in 10 mM aqueous MOPS buffer, pH 7.2
Method: A 2 dram vial was loaded with ˜0.5 mg of a thiostrepton derivative and suspended in ˜4 mL of aqueous 10 mM MOPS buffer (pKa 7.2). The suspension was stirred vigorously for 24 h to ensure equilibration, then filtered through a […] centrifuge filtration unit. A 3.0 mL aliquot was concentrated, and the dried residue was diluted with 0.30 mL of 1:1 1,4-dioxane/H2O (10× original concentration necessitated by detection limits). The total UV absorbance (200-300 nm) was measured in triplicate by UPLC runs with a photodiode array detector. A calibration curve for each compound was created using data points from 3 trials each of concentrations in 1:1 1,4-dioxane/H2O ranging from […]. These concentrations were plotted against their respective average absorbances. The experimental concentration of each compound was calculated by dividing the found μg/mL value by the residue concentration factor of 10 to yield the actual solubility value.

[12] = S. aureus ATCC 29213 MSSA, CAMHB, read-out: MIC
[13] = E. faecalis ATCC 29212 VSE, CAMHB, read-out: MIC
[14] = E. faecalis MMX 486 VRE, CAMHB, read-out: MIC
[15] = S. aureus MMX 8088 MRSA, CAMHB, read-out: MIC
[16] = E. faecium MMX 708 VSE, CAMHB, read-out: MIC
[17] = E. coli ATCC 25922, CAMHB, read-out: MIC
[18] = E. faecium MMX 485 VRE, CAMHB, read-out: MIC
[19] = S. pneumoniae ATCC 49619 PISP, CAMHB with 3% lysed horse blood, read-out: MIC
[20] = S. pyogenes ATCC 19615, CAMHB with 3% lysed horse blood, read-out: MIC

Structure (SMILES) | Precipitation in CAMHB [10] | MIC [1, 12] [µg/mL] | MIC [2, 13] [µg/mL] | MIC [3, 14] [µg/mL] | MIC [4, 15] [µg/mL] | MIC [5, 16] [µg/mL] | MIC [6, 17] [µg/mL] | MIC [7, 18] [µg/mL] | MIC [8, 19] [µg/mL] | MIC [9, 20] [µg/mL] | further results
C=C(NC(=O)c1csc(C2=N[C@@H]3c4csc(n4)[C@H]4NC(=O)c5csc(n5)[C@H]([C@](C)(O)[C@@H](C)O)NC(=O)C5CSC(=N5)/C(=C/C)NC(=O)[C@H]([C@@H](C)O)NC(=O)c5csc(n5)[C@]3(CC2)NC(=O)[C@H](C)NC(=O)C(=C)NC(=O)[C@H](C)NC(=O)[C@H]([C@@H](C)CC)N[C@@H]2C=Cc3c([C@H](C)O)cc(nc3[C@H]2O)C(=O)O[C@@H]4C)n1)C(=O)NC(=CNC(=O)c1ccc(OC)cc1)C(N)=O [RJS-07] | – | – | – | – | – | – | – | – | – | – | MIC [1]: 1 µg/mL (≈ 0.551 µM); MIC [2]: 2 µg/mL (≈ 1.1 µM); MIC ([3]; VRE): 1 µg/mL (≈ 0.551 µM); MIC ([4]; MRSA): 2 µg/mL (≈ 1.1 µM); MIC [5]: 1 µg/mL (≈ 0.551 µM); MIC [6]: > 64 µg/mL; MIC ([7]; VRE): 1 µg/mL (≈ 0.551 µM); MIC [8]: 0.004 µg/mL (≈ 0.0022 µM); MIC [9]: 0.004 µg/mL (≈ 0.0022 µM)
C=C(NC(=O)c1csc(C2=N[C@@H]3c4csc(n4)[C@H]4NC(=O)c5csc(n5)[C@H]([C@](C)(O)[C@@H](C)O)NC(=O)C5CSC(=N5)/C(=C/C)NC(=O)[C@H]([C@@H](C)O)NC(=O)c5csc(n5)[C@]3(CC2)NC(=O)[C@H](C)NC(=O)C(=C)NC(=O)[C@H](C)NC(=O)[C@H]([C@@H](C)CC)N[C@@H]2C=Cc3c([C@H](C)O)cc(nc3[C@H]2O)C(=O)O[C@@H]4C)n1)C(=O)NC(=CNC(=O)c1ccc(Br)cc1)C(N)=O [RJS-08] | distinct precipitation | 1 (≈ 0.537 µM) | 0.5 (≈ 0.268 µM) | 0.5 (≈ 0.268 µM) | 1 (≈ 0.537 µM) | 0.5 (≈ 0.268 µM) | > 64 | 0.5 (≈ 0.268 µM) | < 0.001 | 0.002 (≈ 0.00107 µM) | Precipitation in CAMHB in LHB ([10]; at 64 μg/mL in CAMHB in LHB): distinct precipitation
C=C(NC(=O)c1csc(C2=N[C@@H]3c4csc(n4)[C@H]4NC(=O)c5csc(n5)[C@H]([C@](C)(O)[C@@H](C)O)NC(=O)C5CSC(=N5)/C(=C/C)NC(=O)[C@H]([C@@H](C)O)NC(=O)c5csc(n5)[C@]3(CC2)NC(=O)[C@H](C)NC(=O)C(=C)NC(=O)[C@H](C)NC(=O)[C@H]([C@@H](C)CC)N[C@@H]2C=Cc3c([C@H](C)O)cc(nc3[C@H]2O)C(=O)O[C@@H]4C)n1)C(=O)NC(=CNC(=O)COCCOC)C(N)=O [RJS-10] | distinct precipitation | 1 (≈ 0.557 µM) | 1 (≈ 0.557 µM) | 1 (≈ 0.557 µM) | 1 (≈ 0.557 µM) | 1 (≈ 0.557 µM) | > 64 | 1 (≈ 0.557 µM) | 0.015 (≈ 0.00835 µM) | 0.015 (≈ 0.00835 µM) | solubility at 24 h [11]: 19 µg/mL (≈ 10.6 µM)
C=C(NC(=O)c1csc(C2=N[C@@H]3c4csc(n4)[C@H]4NC(=O)c5csc(n5)[C@H]([C@](C)(O)[C@@H](C)O)NC(=O)C5CSC(=N5)/C(=C/C)NC(=O)[C@H]([C@@H](C)O)NC(=O)c5csc(n5)[C@]3(CC2)NC(=O)[C@H](C)NC(=O)C(=C)NC(=O)[C@H](C)NC(=O)[C@H]([C@@H](C)CC)N[C@@H]2C=Cc3c([C@H](C)O)cc(nc3[C@H]2O)C(=O)O[C@@H]4C)n1)C(=O)NC(=CNC(=O)c1cccc(/C=N/OC(C)(C)C(=O)O)c1)C(N)=O [RJS-13] | – | 1 (≈ 0.523 µM) | 2 (≈ 1.05 µM) | 1 (≈ 0.523 µM) | 1 (≈ 0.523 µM) | 1 (≈ 0.523 µM) | > 64 | 1 (≈ 0.523 µM) | 0.015 (≈ 0.00784 µM) | 0.015 (≈ 0.00784 µM) | –
